Values of other authors in US6153225A (Elan Pharma International Limited, priority 1998, dated 2000).
Counter-ions that a name gives are not always drawn.

| SMILES | pain relief compared with aspirin (menstrual cramps, toothaches, minor arthritis, injuries with inflammation) | remission of acute and very high intensity pain (naproxen sodium salt) |
| --- | --- | --- |
| COc1ccc2cc([C@H](C)C(=O)O)ccc2c1 [Naproxen, d-2(6-methoxy-2-naphthyl)propionic acid] | more potent pain reliever than aspirin |  |
| COc1ccc2cc([C@H](C)C(=O)O)ccc2c1 [naproxen sodium salt] |  | rapid and sustained remission |
